Molecules are shown by their SMILES. Calls of active or inactive are those of the source. No cut-off for these calls is given here.

Experiment [1] in a line: Selectivity ratio of IC50 for antiproliferative activity against human AR-negative PC-3 cells to IC50 for antiproliferative activity against human AR-positive C-42 cells. It counts as functional.
Experiment [2] concerns CWR22R. Nature of the experiment: Antiproliferative activity against human 22Rv1 cells transfected with shBRD7-2 assessed as inhibition of cell growth at 5 uM measured after 4 days by CellTiter-Glo luminescent assay. The format is functional. Set-up: scale not given: the % may be the effect or the level left. The conditions noted are these: time 4 day. For orientation: ATP-based viability assays read luminescence as a measure of living cells.

Experiment [3] relates to CWR22R. Nature of the experiment: Antiproliferative activity against human 22Rv1 cells transfected with shBRD7-2 assessed as inhibition of cell growth at 2.5 uM measured after 4 days by CellTiter-Glo luminescent assay. The format is functional. Conditions: time 4 day. Set-up: scale not given: the % may be the effect or the level left.
Experiment [4] deals with T1, Bromodomain-containing protein 9 (Homo sapiens, UniProt Q9H8M2).
T1 sequence (Q9H8M2 whole entry): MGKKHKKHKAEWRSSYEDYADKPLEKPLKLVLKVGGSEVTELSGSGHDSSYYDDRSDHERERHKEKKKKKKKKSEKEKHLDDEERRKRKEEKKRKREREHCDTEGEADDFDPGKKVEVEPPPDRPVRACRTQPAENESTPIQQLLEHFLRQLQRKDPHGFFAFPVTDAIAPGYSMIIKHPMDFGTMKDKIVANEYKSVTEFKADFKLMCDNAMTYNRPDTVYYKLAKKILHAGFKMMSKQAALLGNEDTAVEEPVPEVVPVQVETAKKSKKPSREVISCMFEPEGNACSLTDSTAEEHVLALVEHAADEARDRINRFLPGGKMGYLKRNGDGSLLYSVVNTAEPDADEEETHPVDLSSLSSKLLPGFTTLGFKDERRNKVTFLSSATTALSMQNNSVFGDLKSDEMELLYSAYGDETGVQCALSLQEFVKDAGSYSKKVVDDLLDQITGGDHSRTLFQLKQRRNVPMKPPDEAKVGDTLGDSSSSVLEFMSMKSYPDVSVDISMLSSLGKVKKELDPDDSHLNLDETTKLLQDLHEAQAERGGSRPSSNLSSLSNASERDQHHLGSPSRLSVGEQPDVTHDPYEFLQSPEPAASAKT
Nature of the experiment: Binding affinity to human partial length BRD9 bromodomain (130 to 259 residues) expressed in bacterial expression system by BROMOscan KdELECT analysis.

The next experiment is described as follows: cells. The conditions noted are these: Homo sapiens, HEK-293T, 2 h.
Experiment [5] concerns CWR22R. Briefly: Antiproliferative activity against human 22Rv1 cells transfected with empty vector assessed as inhibition of cell growth at 2.5 uM measured after 4 days by CellTiter-Glo luminescent assay. It counts as functional. Also noted: scale not given: the % may be the effect or the level left. The conditions noted are these: time 4 day.
The subject of experiment [6] is CWR22R. Briefly: Antiproliferative activity against human 22Rv1 cells transfected with shBRD7-1 assessed as inhibition of cell growth at 2.5 uM measured after 4 days by CellTiter-Glo luminescent assay. It counts as functional. Also noted: scale not given: the % may be the effect or the level left. Conditions: time 4 day.
The target of experiment [7] is T2, Bromodomain-containing protein 9 (Homo sapiens) (UniProt Q9H8M2).
T2 sequence (whole entry): T1 sequence (Q9H8M2 whole entry)
Nature of the experiment: Inhibition of human partial length BRD9 bromodomain (130 to 259 residues) expressed in bacterial expression system at 2 uM by BROMOscan analysis.

Experiment [8] deals with T3, Bromodomain-containing protein 7 (Homo sapiens, UniProt Q9NPI1).
T3 sequence (Q9NPI1 whole entry): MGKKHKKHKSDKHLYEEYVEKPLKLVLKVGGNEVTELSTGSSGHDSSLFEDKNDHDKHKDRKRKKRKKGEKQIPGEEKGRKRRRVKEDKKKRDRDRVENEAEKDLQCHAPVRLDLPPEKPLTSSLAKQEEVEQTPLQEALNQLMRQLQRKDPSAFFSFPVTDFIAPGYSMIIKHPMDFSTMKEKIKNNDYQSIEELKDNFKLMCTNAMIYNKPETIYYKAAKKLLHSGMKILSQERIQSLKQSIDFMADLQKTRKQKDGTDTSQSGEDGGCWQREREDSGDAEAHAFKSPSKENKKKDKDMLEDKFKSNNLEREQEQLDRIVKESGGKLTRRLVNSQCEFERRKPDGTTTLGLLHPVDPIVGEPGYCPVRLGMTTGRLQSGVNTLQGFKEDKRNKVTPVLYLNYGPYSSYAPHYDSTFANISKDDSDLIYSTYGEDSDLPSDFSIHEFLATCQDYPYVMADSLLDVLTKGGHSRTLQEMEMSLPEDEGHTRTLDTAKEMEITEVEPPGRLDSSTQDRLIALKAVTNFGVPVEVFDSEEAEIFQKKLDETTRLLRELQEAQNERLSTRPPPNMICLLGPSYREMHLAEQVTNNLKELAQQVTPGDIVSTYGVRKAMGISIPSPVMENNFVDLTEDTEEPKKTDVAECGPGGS
Nature of the experiment: Binding affinity to human partial length BRD7 bromodomain (125 to 254 residues) expressed in mammalian expression system by BROMOscan KdELECT analysis.

Experiment [9] concerns the target T3, Bromodomain-containing protein 7. Nature of the experiment: Displacement of NanoBRET BRD Tracer-02 from Nanoluc-fused BRD7 bromodomain (unknown origin) expressed in HEK293T cells incubated for 2 hrs by NanoBRET assay. It counts as cell-based. (In general: Bioluminescence resonance energy transfer reports proximity on the nanometre scale.)
For experiment [10] the target is unchanged. Briefly: Binding affinity to N-terminal His TEV-tagged human recombinant BRD7 bromodomain expressed in Escherichia coli BL21(DE3) by microscale thermophoresis assay.
Experiment [11] shares this target. Nature of the experiment: Displacement of FAM-labeled BI-FAMb from N-terminal His TEV-tagged human recombinant BRD7 bromodomain expressed in Escherichia coli BL21(DE3) by competitive fluorescence polarization assay. (Polarisation of emitted light reports the rotation of a fluorescent probe.)
For experiment [12], the system named is CWR22R. Briefly: Antiproliferative activity against human 22Rv1 cells transfected with empty vector assessed as inhibition of cell growth at 5 uM measured after 4 days by CellTiter-Glo luminescent assay. The format is functional. Also noted: scale not given: the % may be the effect or the level left. Conditions: time 4 day.
For experiment [13], the system named is PC-3. Briefly: Antiproliferative activity against AR-negative human PC-3 cells assessed as inhibition of cell growth at 1 uM measured after 4 days by CellTiter-Glo luminescent assay. The format is functional, cell-based. The conditions noted are these: time 4.0 day.
The target of experiment [14] is T1, Bromodomain-containing protein 9. Nature of the experiment: Displacement of FAM-labeled BI-FAMb from N-terminal His TEV-tagged human recombinant BRD9 bromodomain expressed in Escherichia coli BL21(DE3) by competitive fluorescence polarization assay.
Another experiment deals with LNCaP. Briefly: Antiproliferative activity against AR-positive human LNCaP cells assessed as inhibition of cell growth at 1 uM measured after 4 days by CellTiter-Glo luminescent assay. Conditions: time 4.0 day. It counts as functional, cell-based.
The subject of experiment [15] is PC-3. Briefly: Antiproliferative activity against AR-negative human PC-3 cells assessed as inhibition of cell growth at 5 uM incubated for 4 days by CellTiter-Glo luminescent assay. It counts as functional, cell-based. Conditions: time 4.0 day.
The target of experiment [16] is T4, Bromodomain-containing protein 7 (Homo sapiens) (UniProt Q9NPI1).
T4 sequence (whole entry): T3 sequence (Q9NPI1 whole entry)
Nature of the experiment: Inhibition of human partial length BRD7 bromodomain (125 to 254 residues) expressed in mammalian expression system at 2 uM by BROMOscan analysis.

The target in experiment [17] is T2, Bromodomain-containing protein 9 (Homo sapiens). Briefly: Inhibition of BRD9 binding to chromatin in HEK293T cells at 10 uM incubated for 24 hrs by immunoblot analysis. It counts as cell-based.
A short description of experiment [18]: Selectivity ratio of IC50 for antiproliferative activity against human AR-negative PC-3 cells to IC50 for antiproliferative activity against human AR-positive LNCaP cells. The format is functional.
Experiment [19] has as its target T1, Bromodomain-containing protein 9. Briefly: Displacement of NanoBRET BRD Tracer-02 from Nanoluc-fused BRD9 bromodomain (unknown origin) expressed in HEK293T cells incubated for 2 hrs by NanoBRET assay. It counts as cell-based.
The target in experiment [20] is T2, Bromodomain-containing protein 9 (Homo sapiens). Briefly: Binding affinity to N-terminal His TEV-tagged human recombinant BRD9 bromodomain expressed in Escherichia coli BL21(DE3) by microscale thermophoresis assay.
Experiment [21] has as its system CWR22R. Briefly: Antiproliferative activity against human 22Rv1 cells transfected with shBRD7-1 assessed as inhibition of cell growth at 5 uM measured after 4 days by CellTiter-Glo luminescent assay. Conditions: time 4 day. Also noted: scale not given: the % may be the effect or the level left. The format is functional.
For experiment [22], the species on record is Homo sapiens. Briefly: Binding affinity to His TEV-tagged human recombinant BRPF1B expressed in Escherichia coli BL21(DE3) assessed as protein stabilization by measuring increase in melting temperature at 1 uM measured for 120 mins by differential scanning fluorimetry.
Experiment [23] is filed under the species Homo sapiens. Nature of the experiment: Binding affinity to His TEV-tagged human recombinant BRPF1B expressed in Escherichia coli BL21(DE3) assessed as protein stabilization by measuring increase in melting temperature at 25 uM measured for 120 mins by differential scanning fluorimetry.

Description for cells: Displacement of NanoBRET BRD Tracer-02 from Nanoluc-fused BRPF1B bromodomain (unknown origin) expressed in HEK293T cells incubated for 2 hrs by NanoBRET assay

Take `COc1ccc(-c2ccc3c(C)cc(=O)n(C)c3c2)c(OC)n1`: the “Ratio IC50” value in [1] and in experiment [18] was 3 each time. The Activity amounted to 38% in the experiment with CWR22R [2]; 22% in the experiment on CWR22R [3]; 41% in the experiment on CWR22R [5]; 13% in the experiment with CWR22R [6]; 73% in the experiment with CWR22R [12]; 28% in the experiment on CWR22R [21]. Moreover, the Kd (as a rule, a measure of binding affinity in units of concentration) in [4] worked out at 0.655 µM; in experiment [8] it was 0.34 µM; in experiment [10] it was 2.2 µM. The IC50 (usually the concentration that gives 50% inhibition) in “cells” is > 10 µM; in experiment [9] (read-out: IC50), 1.1 µM; in [11] it was 5.4 µM; in [14] it was > 300 µM; in [19] (read-out: IC50) it was 3.2 µM. Besides, the inhibition entry in [7] and in experiment [17] was “inactive” each time. For the same compound, the Ki – broadly, the dissociation constant of the complex between target and ligand, obtained from inhibition or displacement – in [11] is 1.3 µM; in experiment [14], > 20 µM. Further, the result (in the experiment with PC-3 [13]; in experiment [20]) was inactive. The result in the experiment with LNCaP and in the experiment on PC-3 [15] was Active. Further, the inhibition entry in [16] was “Active”.

On to `COc1ccccc1C(=O)Nc1cc2c(cc1N1CCCCC1)n(C)c(=O)n2C`, for which the half-maximal inhibitory concentration (IC50) entry in experiment [9] (hek293t) and in experiment [19] (hek293t) was “Not Active” throughout. The result in the experiment listed under Homo sapiens [22] was Active.

Take `COc1ccc(-c2cn(C)c(=O)c3ccccc23)c(OC)n1`: in [11], the IC50 turned out to be 2.9 µM and the Ki amounted to 0.31 µM. In addition, in experiment [14], the IC50 is 1.5 µM and the Ki turned out to be 0.13 µM.

Regarding `CCn1cc(-c2cccc(C(F)(F)F)c2)c2sc(C(=N)NC3CCS(=O)(=O)CC3)cc2c1=O`, the inhibition entry in experiment [17] is “Active”.

As to `Cc1cc(C)cc(-c2cn(C)c(=O)c3ccccc23)c1`, in experiment [11], the IC50 is 8.1 µM and the Ki turned out to be 0.86 µM. Besides, in experiment [14], the IC50 was 4 µM and the Ki is 0.34 µM.

For `COc1ccc(-c2ccc3c(C)cc(=O)n(C)c3c2)c(C)n1`, the “Ratio IC50” value in experiment [1] and in experiment [18] was 3 in each case. Besides, the Kd in experiment [4] was 0.65 µM; in experiment [8], 0.29 µM; in [10], 1.2 µM. Besides, the IC50 turned out to be 2.8 µM in “cells”; 0.85 µM in experiment [9] (read-out: IC50); 1.6 µM in experiment [11]; 2.7 µM in [14]; 3.3 µM in [19] (read-out: IC50). Besides, the values for the Activity in the experiment on CWR22R [5] and with CWR22R [12] were 26% and 52%, respectively. Further, the inhibition entry in [7] and in experiment [17] was “inactive” throughout. For the same compound, the figures for the Ki in experiment [11] and in [14] were 0.17 µM and 0.23 µM, respectively. Also, the outcome with PC-3 [15] and in the experiment filed under Homo sapiens [23] was Active. The inhibition result in experiment [16] was “Active”. The outcome in experiment [20] was inactive.

For the origin of these results see ChEMBL document CHEMBL5325499, “Rational Design and Development of Selective BRD7 Bromodomain Inhibitors and Their Activity in Prostate Cancer” (J Med Chem, 2023).
